Reference: patent US11292791B2 (priority 2017, dated 2022)

Each compound was assayed against T1, BRD4 (Homo sapiens (Human), UniProt O60885) (assay: not given). Conditions: read-out: BRD4 IC50 (μM gmean).
In the case of COC(=O)N1c2ccc3c(nc(CC(C(=O)O)c4ccc(C5CC5)cc4)n3C3CCCOC3)c2CC[C@@H]1C (stereo partly drawn) [Example 904], the IC50 is reported as 1 to 1000 µM. With COC(=O)N1c2ccc3c(nc(CC(C(=O)O)c4ccccc4)n3-c3cccc(C#N)c3)c2CC[C@@H]1C (stereo partly drawn) [Example 905] the IC50 was 1 to 1000 µM. Compound COC(=O)N1c2ccc3c(nc([C@H](C)Cn4cc(Cl)cn4)n3[C@H]3CC[C@H](C(=O)O)CC3)c2CC[C@@H]1C [Example 907] has an IC50 of 1 to 1000 µM. Compound COC(=O)N1c2ccc3c(nc(Oc4ccccc4)n3[C@H]3CC[C@H](C(=O)O)CC3)c2CC[C@@H]1C [Example 908] has an IC50 of 1 to 1000 µM. COC(=O)N1c2ccc3c(nc(Nc4c(C)n[nH]c4C)n3[C@H]3CC[C@H](C(=O)O)CC3)c2CC[C@@H]1C [Example 909] gave an IC50 of 1 to 1000 µM. Compound COC(=O)N1c2ccc3c(nc(C(C)Cn4cc(C(F)F)cn4)n3C3CCC(C(=O)O)CC3)c2CC[C@@H]1C (stereo partly drawn) [Example 912] has an IC50 of 1 to 1000 µM. Work on COC(=O)N1c2ccc3c(nc(CC(C(=O)O)c4ccc(C)cc4)n3C3COCC(F)(F)C3)c2CC[C@@H]1C (stereo partly drawn) [Example 913] yielded an IC50 of 1 to 1000 µM. COC(=O)N1c2ccc3c(nc(CC(C(=O)O)c4ccccc4)n3-c3ccc(C#N)cc3)c2CC[C@@H]1C (stereo partly drawn) [Example 914] gave an IC50 of 1 to 1000 µM. COC(=O)N1c2ccc3c(nc(Nc4cc(C)nn4C)n3[C@H]3CC[C@H](C(=O)O)CC3)c2CC[C@@H]1C [Example 915] showed an IC50 of 1 to 1000 µM. COC(=O)N1c2ccc3c(nc(Nc4cc(C)nn4C)n3[C@@H]3CCC[C@@H](C(=O)O)C3)c2CC[C@@H]1C [Example 916] was tested, and the IC50 was 1 to 1000 µM. For COC(=O)N1c2ccc3c(nc(C(C)Cn4cccn4)n3C3CCC(C(=O)O)CC3)c2CC[C@@H]1C (stereo partly drawn) [Example 917], the IC50 was 1 to 1000 µM. COC(=O)N1c2ccc3c(nc(C(C)Cn4cc(C)cn4)n3C3CCC(C(=O)O)CC3)c2CC[C@@H]1C (stereo partly drawn) [Example 918] gave an IC50 of 1 to 1000 µM. Compound COC(=O)N1c2ccc3c(nc(CC(C(=O)O)c4ccc(C(F)F)cc4)n3C3COCC(F)(F)C3)c2CC[C@@H]1C (stereo partly drawn) [Example 920] has an IC50 of 1 to 1000 µM. Compound COC(=O)N1c2ccc3c(nc(C(=O)NC4CCCC4)n3[C@@H]3CCC[C@@H](C(=O)O)C3)c2CC[C@@H]1C [Example 922] has an IC50 of 1 to 1000 µM. Work on COC(=O)N1c2ccc3c(nc(C(=O)N(C)C4CCCC4)n3[C@@H]3CCC[C@@H](C(=O)O)C3)c2CC[C@@H]1C [Example 923] yielded an IC50 of 1 to 1000 µM. With COC(=O)N1c2ccc3c(nc(C(C)Cn4cc(Cl)cn4)n3C3CCS(=O)(=O)C3)c2CC[C@@H]1C (stereo partly drawn) [Example 926] the IC50 was 1 to 1000 µM. In the case of COC(=O)N1c2ccc3c(nc(CC(C(=O)O)c4ccc(C)cc4)n3C3COCC(F)(F)C3)c2CC[C@@H]1C (stereo partly drawn) [Example 927], the IC50 is reported as 1 to 1000 µM. Work on COC(=O)N1c2ccc3c(nc(C(C)Cc4cnn(C)c4)n3C3CCNCC3)c2CC[C@@H]1C (stereo partly drawn) [Example 928] yielded an IC50 of 1 to 1000 µM. COC(=O)N1c2ccc3c(nc(C(C)Cn4cc(Cl)cn4)n3C3CCS(=O)(=O)C3)c2CC[C@@H]1C (stereo partly drawn) [Example 930] gave an IC50 of 1 to 1000 µM. Compound COC(=O)N1c2ccc3c(nc(Nc4ccncc4F)n3[C@H]3CC[C@H](C(=O)O)CC3)c2CC[C@@H]1C [Example 933] has an IC50 of 1 to 1000 µM. COC(=O)N1c2ccc3c(nc(C(=O)N(C)c4ccccc4)n3[C@@H]3CCC[C@@H](C(=O)O)C3)c2CC[C@@H]1C [Example 934] gave an IC50 of 1 to 1000 µM. COC(=O)N1c2ccc3c(nc(CCn4cccn4)n3CCN3CCNCC3)c2CC[C@@H]1C [Example 935] was tested, and the IC50 was 1 to 1000 µM. COC(=O)N1c2ccc3c(nc(CC(C(=O)O)c4ccc(C(F)F)cc4)n3C3COCC(F)(F)C3)c2CC[C@@H]1C (stereo partly drawn) [Example 937] gave an IC50 of 1 to 1000 µM. COC(=O)N1c2ccc3c(nc(C(=O)N(C)C4CCCCC4)n3[C@@H]3CCC[C@@H](C(=O)O)C3)c2CC[C@@H]1C [Example 939] showed an IC50 of 1 to 1000 µM. Work on COC(=O)N1c2ccc3c(nc(Nc4ccncc4F)n3[C@@H]3CCC[C@@H](C(=O)O)C3)c2CC[C@@H]1C [Example 941] yielded an IC50 of 1 to 1000 µM. With COC(=O)N1c2ccc3c(nc(Nc4ccnc(C)c4)n3[C@H]3CC[C@H](C(=O)O)CC3)c2CC[C@@H]1C [Example 943] the IC50 was 1 to 1000 µM. Work on COC(=O)N1c2ccc3c(nc(C(C)Cn4cccn4)n3C3CCS(=O)(=O)CC3)c2CC[C@@H]1C (stereo partly drawn) [Example 946] yielded an IC50 of 1 to 1000 µM. COC(=O)N1c2ccc3c(nc(C(C)Cc4ccccc4)n3C3CCNCC3)c2CC[C@@H]1C (stereo partly drawn) [Example 947] showed an IC50 of 1 to 1000 µM. COC(=O)N1c2ccc3c(nc(C(=O)Nc4ccccc4)n3[C@@H]3CCC[C@@H](C(=O)O)C3)c2CC[C@@H]1C [Example 948] gave an IC50 of 1 to 1000 µM. COC(=O)N1c2ccc3c(nc(C(C)Cn4cc(C)cn4)n3C3CCS(=O)(=O)C3)c2CC[C@@H]1C (stereo partly drawn) [Example 949] showed an IC50 of 1 to 1000 µM. COC(=O)N1c2ccc3c(nc(C(C)Cc4cnn(C)c4)n3C3CCNCC3)c2CC[C@@H]1C (stereo partly drawn) [Example 951] gave an IC50 of 1 to 1000 µM. For COC(=O)N1c2ccc3c(nc(C(C)Cn4cccn4)n3C3CCS(=O)(=O)C3)c2CC[C@@H]1C (stereo partly drawn) [Example 955], the IC50 was 1 to 1000 µM. Compound COC(=O)N1c2ccc3c(nc(C(C)Cn4cccn4)n3C3CCS(=O)(=O)C3)c2CC[C@@H]1C (stereo partly drawn) [Example 956] has an IC50 of 1 to 1000 µM. With COC(=O)N1c2ccc3c(nc(C(C)Cn4cc(C)cn4)n3C3CCS(=O)(=O)C3)c2CC[C@@H]1C (stereo partly drawn) [Example 958] the IC50 was 1 to 1000 µM. In the case of COC(=O)N1c2ccc3c(nc(C(=O)Nc4ccccc4Cl)n3[C@@H]3CCC[C@@H](C(=O)O)C3)c2CC[C@@H]1C [Example 961], the IC50 is reported as 1 to 1000 µM.

What follows are compounds tested against T1, BRD4 (assay: biochemical). Conditions: BRD4 IC50 (μM gmean).
In the case of COC(=O)N1c2ccc3c(nc(Cc4ccccc4)n3CCC(N)=O)c2CC[C@@H]1C [Example 289, methyl (7S)-2-benzyl-3-(2-carbamoylethyl)-7-methyl-3H,6H,7H,8H,9H-imidazo[4,5-f]quinoline-6-carboxylate], the IC50 is reported as 1 to 1000 µM.
